Test results as given in ChEMBL document CHEMBL5537183, “Discovery, Optimization, and Biological Evaluation of Arylpyridones as Cbl-b Inhibitors” (J Med Chem, 2024).

How the values were obtained:
[1] = Lipophilicity, logD of compound at pH 7.4; type: physicochemical; settings: buffer
[2] = Stability in human liver microsome assessed as intrinsic clearance; type: ADME; settings: liver microsomes, read-out: CLH
[3] = Induction of IL-2 production in human T cells; type: functional, cell-based, T-cell
[4] = Clearance in rat hepatocytes assessed as measured per million cells at 0.1 to 1 uM measured for 120 mins by LC-MS/MS analysis; type: ADME, cell-based, Hepatocyte; settings: dose 0.1-1 µM
[5] = target: E3 ubiquitin-protein ligase CBL (Homo sapiens, UniProt P22681); assay: Inhibition of cCbl (unknown origin) by TR-FRET assay
[6] = target: T1, E3 ubiquitin-protein ligase CBL-B (Homo sapiens, UniProt Q13191); assay: Inhibition of biotinylated recombinant Cbl-b (36 to 427 residues)(unknown origin) expressed in Escherichia coli BL21(DE3) Tuner cells using a FAM-labeled probe by TR-FRET assay
[7] = target: T1, E3 ubiquitin-protein ligase CBL-B; assay: Inhibition of biotinylated recombinant Cbl-b (36 to 427 residues)(unknown origin) expressed in Escherichia coli BL21(DE3) Tuner cells assessed as decrease in Cbl-b auto-ubiquitination incubated for 60 mins in presence of Ub-FITC/ATP by TR-FRET assay
[8] = target: T1, E3 ubiquitin-protein ligase CBL-B; assay: Inhibition of biotinylated recombinant Cbl-b (36 to 427 residues)(unknown origin) expressed in Escherichia coli BL21(DE3) Tuner cells assessed as decrease in ZAP70 ubiquitination incubated for 60 mins in presence of Ub-FITC/ATP by TR-FRET assay
[9] = Clearance in human hepatocytes assessed as measured per million cells at 0.1 to 1 uM measured for 120 mins by LC-MS/MS analysis; type: ADME, cell-based, Hepatocyte; settings: dose 0.1-1 µM, read-out: CLH
[10] = AUC (infinity) in CD1 mouse at 1 mg/kg, po measured for 24 hrs by LC-MS/MS analysis; type: ADME, organism-based; settings: in vivo
[11] = Volume of distribution at steady state in Wistar Han rat at 0.5 mg/kg, iv measured for 24 hrs by LC-MS/MS analysis; type: ADME, organism-based; settings: in vivo, read-out: Vdss
[12] = Tmax in CD1 mouse at 1 mg/kg, po measured for 24 hrs by LC-MS/MS analysis; type: ADME, organism-based; settings: in vivo
[13] = Clearance in CD1 mouse at 0.5 mg/kg, iv measured for 24 hrs by LC-MS/MS analysis; type: ADME, organism-based; settings: in vivo
[14] = Volume of distribution at steady state in CD1 mouse at 0.5 mg/kg, iv measured for 24 hrs by LC-MS/MS analysis; type: ADME, organism-based; settings: in vivo, read-out: Vdss
[15] = Oral bioavailability in Wistar Han rat at 1 mg/kg measured for 24 hrs by LC-MS/MS analysis; type: ADME, organism-based; settings: in vivo
[16] = Tmax in Wistar Han rat at 1 mg/kg, po measured for 24 hrs by LC-MS/MS analysis; type: ADME, organism-based; settings: in vivo
[17] = Cmax in Wistar Han rat at 1 mg/kg, po measured for 24 hrs by LC-MS/MS analysis; type: ADME, organism-based; settings: in vivo
[18] = AUC (infinity) in Wistar Han rat at 1 mg/kg, po measured for 24 hrs by LC-MS/MS analysis; type: ADME, organism-based; settings: in vivo
[19] = Cmax in CD1 mouse at 1 mg/kg, po measured for 24 hrs by LC-MS/MS analysis; type: ADME, organism-based; settings: in vivo
[20] = Clearance in Wistar Han rat at 0.5 mg/kg, iv measured for 24 hrs by LC-MS/MS analysis; type: ADME, organism-based; settings: in vivo
[21] = Oral bioavailability in CD1 mouse at 1 mg/kg measured for 24 hrs by LC-MS/MS analysis; type: ADME, organism-based; settings: in vivo
[22] = Half life in Wistar Han rat at 0.5 mg/kg, iv measured for 24 hrs by LC-MS/MS analysis; type: ADME, organism-based; settings: in vivo
[23] = Half life in CD1 mouse at 0.5 mg/kg, iv measured for 24 hrs by LC-MS/MS analysis; type: ADME, organism-based; settings: in vivo

T1 sequence (Q13191 whole entry, the tested form may be a part): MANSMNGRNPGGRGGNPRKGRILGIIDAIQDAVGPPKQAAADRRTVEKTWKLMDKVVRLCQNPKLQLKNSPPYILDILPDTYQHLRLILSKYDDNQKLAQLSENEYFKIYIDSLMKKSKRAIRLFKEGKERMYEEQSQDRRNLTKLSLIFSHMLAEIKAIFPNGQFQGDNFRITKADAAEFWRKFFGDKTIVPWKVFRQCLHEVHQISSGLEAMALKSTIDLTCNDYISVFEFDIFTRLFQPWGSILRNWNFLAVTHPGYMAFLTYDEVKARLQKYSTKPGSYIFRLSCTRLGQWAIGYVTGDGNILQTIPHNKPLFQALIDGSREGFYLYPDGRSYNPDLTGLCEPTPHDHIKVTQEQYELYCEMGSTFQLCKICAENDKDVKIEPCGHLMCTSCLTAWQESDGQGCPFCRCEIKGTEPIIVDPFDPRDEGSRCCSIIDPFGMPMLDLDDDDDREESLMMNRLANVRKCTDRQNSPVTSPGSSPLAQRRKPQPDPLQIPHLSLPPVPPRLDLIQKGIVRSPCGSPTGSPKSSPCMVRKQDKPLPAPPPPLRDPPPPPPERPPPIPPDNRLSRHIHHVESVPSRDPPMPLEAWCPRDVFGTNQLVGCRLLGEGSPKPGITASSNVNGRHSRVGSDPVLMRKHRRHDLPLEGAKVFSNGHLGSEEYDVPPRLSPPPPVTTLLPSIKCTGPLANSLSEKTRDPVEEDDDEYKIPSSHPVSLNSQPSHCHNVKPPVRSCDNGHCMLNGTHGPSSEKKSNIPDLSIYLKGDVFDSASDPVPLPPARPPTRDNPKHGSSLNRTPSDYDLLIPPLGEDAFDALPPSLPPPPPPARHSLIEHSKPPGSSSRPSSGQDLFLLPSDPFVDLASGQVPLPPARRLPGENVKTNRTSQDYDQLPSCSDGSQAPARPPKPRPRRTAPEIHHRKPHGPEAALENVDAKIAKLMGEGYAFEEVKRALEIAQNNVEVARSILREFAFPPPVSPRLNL

Row | Structure (SMILES) | logD [1] | microsomal CLint [2] [µL/min/mg] | EC50 ([3]; Homo sapiens, T-cell) [nM] | hepatocyte CLint at up to 1 µM [4] [µL/min/1e6 cells] | IC50 [5] [nM] | IC50 [6] [nM] | also measured
1 | Cn1cc(Cn2cc(C(F)(F)F)cc(-c3cccc([C@]4(c5nncn5C)C[C@@H](C)C4)c3)c2=O)nn1 | 2.3 | 79 | 1680 | 8.1 | 40 | 30 | –
2 | C[C@@H](COCCC(=O)N1CCN2c3ncc(C(F)(F)F)cc3NC(=O)C2C1)Nc1cn[nH]c(=O)c1C(F)(F)F (stereo partly drawn) | – | – | – | – | – | – | IC50 [7]: 30.7 nM; IC50 [8]: 26.9 nM
3 | Cn1cnnc1[C@@H](c1cccc(-c2cc(C(F)(F)F)c[nH]c2=O)c1)C1CCC1 (racemic) | 2.5 | 25 | 5290 | – | 410 | 59 | –
4 | Cn1cc(C(F)(F)F)c2cc(-c3cccc([C@]4(c5nncn5C)C[C@@H](C)C4)c3)c(=O)[nH]c21 | 3.8 | 83 | – | – | 860 | 190 | –
5 | Cn1cc(Cn2cc(C(F)(F)F)cc(-c3cccc([C@]4(c5nncn5C)C[C@@H](C)C4)c3)c2=O)cn1 | 2.7 | 200 | 3000 | 9.7 | 200 | 40 | –
6 | CC#CCn1cc(C(F)(F)F)cc(-c2cccc([C@]3(c4nncn4C)C[C@@H](C)C3)c2)c1=O | 3.3 | 76 | 850 | 21 | 160 | 34 | –
7 | COc1c[nH]c(=O)c(-c2cccc([C@]3(c4nncn4C)C[C@@H](C)C3)c2)c1 | 1.5 | 9.7 | – | – | 11600 | 2680 | –
8 | CC#C[C@H](C)n1cc(C(F)(F)F)cc(-c2cccc([C@]3(c4nncn4C)C[C@@H](C)C3)c2)c1=O | 3.9 | 190 | 460 | 24 | 40 | 30 | –
9 | Cc1nnc(Cn2cc(C(F)(F)F)cc(-c3cccc([C@]4(c5nncn5C)C[C@@H](C)C4)c3)c2=O)o1 | 1.7 | 29 | 2860 | 7.8 | 330 | 70 | hepatocyte CLint at up to 1 µM [9]: 1.7 µL/min/1e6 cells
10 | Cn1cnnc1[C@]1(c2cccc(-c3cc(C4CC4)c[nH]c3=O)c2)C[C@H](C)C1 | 2.4 | 29 | – | – | 1340 | 360 | –
11 | CN1CC[C@H](Cn2cc(C(F)(F)F)cc(-c3cccc([C@]4(c5nncn5C)C[C@@H](C)C4)c3)c2=O)C1 | 1.1 | 13 | 10800 | 2.4 | 330 | 50 | –
12 | Cn1cc(C(F)(F)F)cc(-c2cccc([C@]3(c4nncn4C)C[C@@H](C)C3)c2)c1=O | 2.4 | 37 | 5890 | 16 | 880 | 145 | –
13 | Cc1c[nH]c(=O)c(-c2cccc([C@]3(c4nncn4C)C[C@@H](C)C3)c2)c1 | 2.6 | 3 | – | – | 6300 | 1470 | –
14 | Cn1cnnc1[C@]1(c2cccc(-c3cc(C(F)(F)F)c[nH]c3=O)c2)C[C@H](C)C1 | 3.58 | 2.5 | – | 16 | 580 | 84 | –
15 | C[C@H](c1cnn(C)c1)n1cc(C(F)(F)F)cc(-c2cccc([C@]3(c4nncn4C)C[C@@H](C)C3)c2)c1=O | 2.9 | 220 | 590 | 21 | – | – | –
16 | Cn1cnnc1C1(c2cccc(-c3cc(C(F)(F)F)c[nH]c3=O)c2)CCC1 | 2.1 | 14 | 3980 | – | 2200 | 340 | –
17 | Cn1cnnc1[C@]1(c2cccc(-c3cc(C(F)(F)F)ccc3O)c2)C[C@H](C)C1 | 4.4 | 21 | – | – | > 100000 | > 100000 | –
18 | Cn1cnnc1[C@]1(c2cccc(-c3cc(OC(F)(F)F)c[nH]c3=O)c2)C[C@H](C)C1 | 2.6 | 3 | – | – | 1700 | 310 | –
19 | Cn1cnnc1[C@]1(c2cccc(-c3nc(C(F)(F)F)c[nH]c3=O)c2)C[C@H](C)C1 | 2.1 | 15 | – | – | 6550 | 890 | –
20 | C[C@@H](c1cnn(C)c1)n1cc(C(F)(F)F)cc(-c2cccc([C@]3(c4nncn4C)C[C@@H](C)C3)c2)c1=O | 2.8 | 160 | – | 6.4 | – | – | AUC(0-inf) [10]: 30 ng·h/mL; Vd [11]: 1.6 L/kg; EC50 ([3]; t-cell): 230 nM; Tmax [12]: 4.98 min; hepatocyte CLint at up to 1 µM [9]: 8.7 µL/min/1e6 cells; clearance [13]: 100 mL/min/kg; Vd [14]: 1.3 L/kg; bioavailability [15]: 15%; Tmax [16]: 45 min; Cmax [17]: 21 ng/mL; AUC(0-inf) [18]: 46 ng·h/mL; Cmax [19]: 35 ng/mL; clearance [20]: 55 mL/min/kg; bioavailability [21]: 19%; half-life [22]: 27 min; half-life [23]: 18 min
21 | CN1CCC(Cn2cc(C(F)(F)F)cc(-c3cccc([C@]4(c5nncn5C)C[C@@H](C)C4)c3)c2=O)CC1 | 1.3 | 47 | 16700 | 13 | 460 | 74 | –
22 | C[C@@H](C#N)n1cc(C(F)(F)F)cc(-c2cccc([C@]3(c4nncn4C)C[C@@H](C)C3)c2)c1=O | 2.2 | 85 | 440 | 12 | 50 | 40 | –
23 | Cn1cnnc1[C@]1(c2cccc(-n3cc(C(F)(F)F)ccc3=O)c2)C[C@H](C)C1 | 1.6 | 15 | – | – | 10300 | 2100 | –
24 | Cn1cnnc1C[C@]1(c2cccc(-c3cc(C(F)(F)F)c[nH]c3=O)c2)C[C@H](C#N)C1 | 1.1 | 6.8 | > 30000 | – | 960 | 160 | –
25 | Cn1cnc(Cn2cc(C(F)(F)F)cc(-c3cccc([C@]4(c5nncn5C)C[C@@H](C)C4)c3)c2=O)c1 | 2.4 | 130 | 2530 | 32 | 190 | 50 | –
